The values below come from ChEMBL document CHEMBL1156211, “Amide-based inhibitors of p38alpha MAP kinase. Part 1: discovery of novel N-pyridyl amide lead molecules” (Bioorg Med Chem Lett, 2010).

T1 sequence (Q16539 whole entry): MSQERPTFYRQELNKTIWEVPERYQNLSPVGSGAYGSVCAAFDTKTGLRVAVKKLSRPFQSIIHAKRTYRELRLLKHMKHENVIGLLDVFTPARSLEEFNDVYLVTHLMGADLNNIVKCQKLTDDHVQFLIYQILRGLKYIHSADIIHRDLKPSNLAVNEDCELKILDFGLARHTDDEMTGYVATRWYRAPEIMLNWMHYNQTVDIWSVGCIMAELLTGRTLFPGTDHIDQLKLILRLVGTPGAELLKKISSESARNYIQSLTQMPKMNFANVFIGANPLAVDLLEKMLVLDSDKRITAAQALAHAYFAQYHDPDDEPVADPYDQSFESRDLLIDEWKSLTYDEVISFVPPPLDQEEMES

The first experiment addresses T1, Mitogen-activated protein kinase 14 (Homo sapiens, UniProt Q16539). Nature of the experiment: Inhibition of p38alpha assessed as inhibition of gamma-32p-ATP incorporation into biotin peptide substrate after 60 mins by scintillation counter.
`C[C@H](Nc1cc(N(Cc2ccc(F)cc2)C(=O)N2CCC3C=CC=CC3C2)ccn1)c1ccccc1` (stereo not given in full): the IC50 was 1110 nM. As to `Nc1cc(N(Cc2ccc(F)cc2)C(=O)c2ccc3ccccc3c2)ccn1`, the half-inhibitory concentration (IC50) came out at 5080 nM. In the case of `C[C@H](Nc1cc(N(Cc2ccc(F)cc2)C(=O)c2ccccc2)ccn1)c1ccccc1`, the 50% inhibitory concentration (IC50) amounted to 589 nM. Turning to `C[C@@H](Nc1cc(N(Cc2ccc(F)cc2)C(=O)c2ccc3ccccc3c2)ccn1)c1ccccc1`, the IC50 came out at 7800 nM.

For `O=C(c1ccc2ccccc2c1)N(Cc1ccc(F)cc1)c1ccnc(NC2CCCCC2)c1`, the IC50 worked out at 1110 nM. Still for that read-out and setting: to `C[C@H](Nc1cc(N(Cc2ccc(F)cc2)S(=O)(=O)c2ccc3ccccc3c2)ccn1)c1ccccc1` belongs 7540 nM; to `CC(=O)N(Cc1ccc(F)cc1)c1ccnc(N[C@@H](C)c2ccccc2)c1`, 408 nM; to `CC(C)Nc1cc(N(Cc2ccc(F)cc2)C(=O)c2ccc3ccccc3c2)ccn1`, 671 nM.

Turning to `O=C(c1ccc2ccccc2c1)N(Cc1ccc(F)cc1)c1ccncc1`, the IC50 is 1260 nM. On to `C[C@H](Nc1cc(N(Cc2ccc(F)cc2)C(=O)c2ccc3ccccc3c2)ccn1)c1ccccc1`, for which the half-inhibitory concentration (IC50) is 345 nM.

Take `O=C(c1ccc2ccccc2c1)N(Cc1ccc(F)cc1)c1ccnc(NCc2ccccc2)c1`: the 50% inhibitory concentration (IC50) is 1220 nM. With `CCN(C(=O)c1ccc2ccccc2c1)c1ccnc(N[C@@H](C)c2ccccc2)c1`, the IC50 was determined as 313 nM.

For the next experiment, the target named is T1, Mitogen-activated protein kinase 14. The experiment can be described thus: Inhibition of p38alpha assessed as inhibition of gamma-32p-ATP incorporation into biotin peptide substrate at 1 uM after 60 mins by scintillation counter.
As to `C[C@H](Nc1cc(NCc2ccc(F)cc2)ccn1)c1ccccc1`, the inhibition was found to be 0%. With `O=C(c1ccc2ccccc2c1)N(Cc1ccncc1)c1ccc(F)cc1`, the inhibition was 0%. On the same count and under the same terms, to `C[C@H](Nc1cc(CN(C(=O)c2ccc3ccccc3c2)c2ccc(F)cc2)ccn1)c1ccccc1` belongs 0%.
